Tested on: C. auris
Test: Screening of antifungal activity at 256 µg/mL against C. auris
Type: cell-based, Candida auris
Details: screening at 256 µg/mL, clinical isolates of C. auris
Source text: The fungal strains used in this study were C. albicans ATCC 10231, C. albicans ATCC 64550, C. parapsilosis ATCC 22019, C. tropicalis ATCC 750, C. tropicalis ATCC 200956 (resistant to azoles and AMB), C. glabrata LMDM 34 (resistant to echinocandins), C. metapsilosis MUM 15.12, C. orthopsilosis MUM 17.13, C. lusitaniae MUM 17.08, C. krusei ATCC 6258 (Issatchenkia orientalis ATCC 6258), and C. auris CDC B11903. Additionally, nine clinical isolates were included: C. parapsilosis Synlab 406 (FLC-resistant) and eight C. auris isolates identified by MALDI-TOF MS (Bruker Daltonics, Bremen, Germany) according to Zhao et al.. These yeasts were cultured on Sabouraud Dextrose Agar (SDA; Sigma-Aldrich, St. Louis, MO, USA) for 24 h at 35 °C.
Antifungal susceptibility testing was performed according to Clinical and Laboratory Standards Institute M27, 4th Edition (CLSI standard M27, 4th Edition). Some modifications were applied for evaluation of the antifungal activity of EOs and terpenes. Initially, a screening was carried out to determine the antifungal activity of the EOs and of commercial terpenes. Stock concentrations of EOs and terpenes were prepared at 512 µg/mL and an inoculum of 2.5 × 10^3 CFU/mL of each yeast was prepared in RPMI 1640-MOPS (Sigma- Aldrich St. Louis, MO, USA). Thereafter, 100 µL of each stock solution of EOs or terpenes was dispensed in 96-well microdilution plates (Corning®, Costar®, NY, USA) and 100 µL of each yeast inoculum was added. […] MICs were visually determined at the lowest concentration that produced visual inhibition compared to the growth control. […] The results were expressed as geometric means (GM) and ranges. As an antifungal susceptibility testing control, the activity of ITC and AMB against the reference strains C. krusei ATCC 6258 and C. parapsilosis ATCC 22019 was evaluated in all experiments following the CLSI standard M27, 4th Edition. […]

C=C(C)C1CC=C(C)C(O)C1 (mixture of isomers) [carveol]
antifungal activity in screening against C. auris: active against only some of the clinical isolates of C. auris

C=C1CC/C=C(\C)CC[C@@H]2[C@@H]1CC2(C)C (relative stereo) [trans-β-caryophyllene]
antifungal activity in screening against C. auris: active against only some of the clinical isolates of C. auris

From article PMC9606955, “In Vitro Activity of Essential Oils Distilled from Colombian Plants against Candida auris and Other Candida Species with Different Antifungal Susceptibility Profiles” (Molecules, 2022)
